From patent US20090281054A1, “COMPOSITIONS AND METHODS COMPRISING CAPURAMYCIN ANALOGUES” (priority 2008, published 2009) come the findings set out here.

What is called IC50 is the point on the concentration scale where inhibition reaches its midpoint. Low readings indicate greater potency in that assay, high ones weaker potency in that assay. Usually MIC stands for the smallest concentration in the dilution series that meets the test's criterion for growth inhibition. By MIC90 is commonly meant an inhibitory concentration at the 90% level, which refers to growth in some studies and to a panel of isolates in others.

For one assay, the target named is translocase I (Escherichia coli, UniProt P0A6W3). In words: IC50 against translocase I. It is filed as biochemical.
The subject of assay [1] is M. smegmatis (MSMG; MC2155). In words: MIC by microdilution method in 7H9 broth. It is filed as cell-based. The note with it: Mycolicibacterium smegmatis, MC2155|MC^2155, 72 hr, read-out: MIC. In general terms: Dilution methods test growth across graded concentrations, often in twofold steps.
A further assay deals with M. avium complex (MAC). The experiment in a line: MIC by microdilution method in 7H9 broth. It is filed as cell-based. To be noted: for MIC / MIC90: Mycobacterium avium; for MIC90: value in square brackets, read-out: MIC90.
In assay [2] the test system is M. abscessus (MAB; ATCC 700869). In words: MIC by microdilution method in 7H9 broth. The class given is cell-based. The note with it: Mycobacteroides abscessus, ATCC700869; MAB 700869; read-out: MIC.
The test system of assay [3] is M. kansaii (MKN; ATCC12478 & 35775). The experiment in a line: MIC by microdilution method in 7H9 broth. It is filed as cell-based, M. kansasii. The note with it: Mycobacterium kansasii, read-out: MIC.
A further assay relates to MTB in J774A.1 cells. The experiment in a line: Intracellular activity of SQ641 with efflux pump blockers. It is filed as cell-based, Mycobacterium tuberculosis. To be noted: J774A.1 cells; VE and CsA at 10 μM.
Where [4] appears, read: 336 h, MAC isolates, 2 wk, read-out: MIC (range).
Setting [5] is: MAC strain NIH C1-1, read-out: MIC.
The mark [6] stands for this setting: MAC strain NIH C1-2, read-out: MIC.
Setting [7] is: MAC strain NIH C1-3, read-out: MIC.
The mark [8] stands for this setting: MAC strain NIH C1-4, read-out: MIC.
Setting [9] is: ATCC 12478 / ATCC 35775, MKN ATCC35775.

The structures appear in SMILES notation. ≈ marks a conversion by molar mass, not a printed value. Read-outs that look alike come from different tables or passages of the source.

Sequence of translocase I (P0A6W3 whole entry): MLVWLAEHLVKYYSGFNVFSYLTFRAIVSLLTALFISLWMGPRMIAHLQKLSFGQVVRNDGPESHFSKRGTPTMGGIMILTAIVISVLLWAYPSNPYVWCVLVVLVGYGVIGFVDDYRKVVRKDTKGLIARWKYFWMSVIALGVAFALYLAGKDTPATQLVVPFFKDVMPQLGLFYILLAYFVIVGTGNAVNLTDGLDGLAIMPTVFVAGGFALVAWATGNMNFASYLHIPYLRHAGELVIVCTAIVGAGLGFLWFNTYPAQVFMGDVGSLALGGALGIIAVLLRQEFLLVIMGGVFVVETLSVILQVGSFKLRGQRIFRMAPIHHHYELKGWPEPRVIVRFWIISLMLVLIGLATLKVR

On translocase I, `CO[C@H]1[C@@H](O)[C@H](n2ccc(=O)[nH]c2=O)O[C@@H]1[C@@H](O[C@H]1OC(C(=O)Nc2ccc(F)c(C(F)(F)F)c2)=C[C@H](O)[C@@H]1O)C(N)=O` [RKS2137] had a 50% inhibitory concentration (IC50) of 12.9 nM. The MIC in assay [1] (MSMG MC^2155) is 4 µg/mL (≈ 6.45 µM); in the assay on M. avium complex (MAC) (setting [4]), 0.5 to 16 µg/mL (≈ 0.806 to 25.8 µM); in the assay with M. avium complex (MAC) (MAC strain 100, read-out: MIC) it was 2 µg/mL (≈ 3.22 µM); in the assay on M. avium complex (MAC) (MAC strain 101, read-out: MIC) it was 1 µg/mL (≈ 1.61 µM); in the assay with M. avium complex (MAC) (MAC strain 104, read-out: MIC) it was 1 µg/mL (≈ 1.61 µM); in the assay with M. avium complex (MAC) (MAC strain 109, read-out: MIC), 0.5 µg/mL (≈ 0.806 µM). For the same compound, the MIC was found to be 1 µg/mL (≈ 1.61 µM) in the assay on M. avium complex (MAC) (MAC strain A5, read-out: MIC); 1 µg/mL (≈ 1.61 µM) with M. avium complex (MAC) (MAC strain JSH1, read-out: MIC); 8 µg/mL (≈ 12.9 µM) in the assay on M. avium complex (MAC) (setting [5]); 2 µg/mL (≈ 3.22 µM) in the assay with M. avium complex (MAC) (setting [6]); 16 µg/mL (≈ 25.8 µM) with M. avium complex (MAC) (setting [7]); 2 µg/mL (≈ 3.22 µM) in the assay with M. avium complex (MAC) (setting [8]). For the same compound, the MIC in assay [2] was 8 µg/mL (≈ 12.9 µM); in assay [3] (setting [9]), 2 µg/mL (≈ 3.22 µM); in assay [3] (MKN ATCC12478), greater than 32 µg/mL. Further, in the assay on M. avium complex (MAC) (MAC isolates), the MIC90 came to 8 µg/mL (≈ 12.9 µM).
Take `Cc1ccc(C)c(OCCCC(C)(C)C(=O)O)c1` [GF, gemfibrozil, reference compound]: the “Effect of efflux pump blocker on intracellular activity of SQ641 against MTB” value in the assay with MTB in J774A.1 cells is on record as “only moderate effects”.
Turning to `CO[C@H]1[C@@H](O)[C@H](n2ccc(=O)[nH]c2=O)O[C@@H]1[C@@H](O[C@H]1OC(C(=O)Nc2ccc(F)c(F)c2F)=C[C@H](O)[C@@H]1O)C(N)=O` [RKS2235], the IC50 at translocase I is 17 nM. Besides, the minimum inhibitory concentration (MIC) is 4 µg/mL (≈ 6.8 µM) in assay [1] (MSMG MC^2155); 1 to 8 µg/mL (≈ 1.7 to 13.6 µM) with M. avium complex (MAC) (setting [4]); 2 µg/mL (≈ 3.4 µM) in the assay with M. avium complex (MAC) (MAC strain 100, read-out: MIC); 1 µg/mL (≈ 1.7 µM) in the assay on M. avium complex (MAC) (MAC strain 101, read-out: MIC); 1 µg/mL (≈ 1.7 µM) in the assay with M. avium complex (MAC) (MAC strain 104, read-out: MIC); 1 µg/mL (≈ 1.7 µM) in the assay with M. avium complex (MAC) (MAC strain 109, read-out: MIC). In addition, the MIC in the assay on M. avium complex (MAC) (MAC strain A5, read-out: MIC) is 1 µg/mL (≈ 1.7 µM); in the assay with M. avium complex (MAC) (MAC strain JSH1, read-out: MIC), 2 µg/mL (≈ 3.4 µM); in the assay with M. avium complex (MAC) (setting [5]), 4 µg/mL (≈ 6.8 µM); in the assay on M. avium complex (MAC) (setting [6]), 2 µg/mL (≈ 3.4 µM); with M. avium complex (MAC) (setting [7]), 8 µg/mL (≈ 13.6 µM); in the assay on M. avium complex (MAC) (setting [8]) it was 2 µg/mL (≈ 3.4 µM). In addition, the values for the MIC in assay [2], in assay [3] (setting [9]) and in assay [3] (MKN ATCC12478) were 16 µg/mL (≈ 27.2 µM), 2 µg/mL (≈ 3.4 µM) and greater than 32 µg/mL, respectively. Further, in the assay on M. avium complex (MAC) (MAC isolates), the MIC90 stood at 4 µg/mL (≈ 6.8 µM).
At translocase I, `CO[C@H]1[C@@H](O)[C@H](n2ccc(=O)[nH]c2=O)O[C@@H]1[C@@H](O[C@H]1OC(C(=O)Nc2ccc(Br)c(C)c2)=C[C@H](O)[C@@H]1O)C(N)=O` [RKS2244] had an IC50 of 12.4 nM. Besides, the minimal inhibitory concentration (MIC) in assay [1] (MSMG MC^2155) was 1 µg/mL (≈ 1.59 µM); with M. avium complex (MAC) (setting [4]) it was 0.5 to 8 µg/mL (≈ 0.797 to 12.8 µM); in the assay with M. avium complex (MAC) (MAC strain 100, read-out: MIC), 0.5 µg/mL (≈ 0.797 µM); in the assay on M. avium complex (MAC) (MAC strain 101, read-out: MIC) it was 0.25 µg/mL (≈ 0.398 µM); in the assay with M. avium complex (MAC) (MAC strain 104, read-out: MIC) it was 0.25 µg/mL (≈ 0.398 µM); in the assay with M. avium complex (MAC) (MAC strain 109, read-out: MIC), 0.25 µg/mL (≈ 0.398 µM). Further, the minimal inhibitory concentration (MIC) was 0.25 µg/mL (≈ 0.398 µM) in the assay on M. avium complex (MAC) (MAC strain A5, read-out: MIC); 0.5 µg/mL (≈ 0.797 µM) in the assay on M. avium complex (MAC) (MAC strain JSH1, read-out: MIC); 4 µg/mL (≈ 6.38 µM) with M. avium complex (MAC) (setting [5]); 0.5 µg/mL (≈ 0.797 µM) with M. avium complex (MAC) (setting [6]); 8 µg/mL (≈ 12.8 µM) in the assay with M. avium complex (MAC) (setting [7]); 1 µg/mL (≈ 1.59 µM) in the assay with M. avium complex (MAC) (setting [8]). For the same compound, the minimal inhibitory concentration (MIC) in assay [2] is 4 µg/mL (≈ 6.38 µM); in assay [3] (setting [9]), 2 µg/mL (≈ 3.19 µM); in assay [3] (MKN ATCC12478), greater than 32 µg/mL. In the assay on M. avium complex (MAC) (MAC isolates), the MIC90 came out at 4 µg/mL (≈ 6.38 µM). In the assay with M. avium complex (MAC) (ten MAC isolates (Table 6)), this compound displayed an MIC range of 0.25 to 8 µg/mL.
Consider `COc1c(N2C[C@@H]3CCCN[C@@H]3C2)c(F)cc2c(=O)c(C(=O)O)cn(C3CC3)c12` [MOX, moxifloxacin, reference compound], for which the MIC in assay [1] is 0.125 µg/mL (≈ 0.311 µM); in assay [2] it was greater than 32 µg/mL; in assay [3] (setting [9]), 0.031 µg/mL (≈ 0.0772 µM); in assay [3] (MKN ATCC12478), 0.125 µg/mL (≈ 0.311 µM).
For `COC(=O)C1=C[C@H](O)[C@H](O)[C@@H](O[C@@H](C(N)=O)[C@H]2O[C@@H](n3ccc(=O)[nH]c3=O)[C@H](O)[C@@H]2OC)O1` [RS 120029], the MIC was greater than 32 µg/mL in assay [1] (MSMG MC^2155); 32 µg/mL (≈ 67.6 µM) in the assay with M. avium complex (MAC) (MAC strain 100, read-out: MIC); greater than 32 µg/mL with M. avium complex (MAC) (MAC strain 101, read-out: MIC); 32 µg/mL (≈ 67.6 µM) in the assay with M. avium complex (MAC) (MAC strain 104, read-out: MIC); 32 µg/mL (≈ 67.6 µM) in the assay on M. avium complex (MAC) (MAC strain 109, read-out: MIC); 32 µg/mL (≈ 67.6 µM) in the assay with M. avium complex (MAC) (MAC strain A5, read-out: MIC). In addition, the MIC in the assay with M. avium complex (MAC) (MAC strain JSH1, read-out: MIC) was greater than 32 µg/mL; with M. avium complex (MAC) (setting [5]), greater than 32 µg/mL; in the assay on M. avium complex (MAC) (setting [6]), greater than 32 µg/mL; in the assay on M. avium complex (MAC) (setting [7]), greater than 32 µg/mL; in the assay on M. avium complex (MAC) (setting [8]) it was greater than 32 µg/mL; in assay [2] it was greater than 32 µg/mL. Besides, the minimal inhibitory concentration (MIC) in assay [3] (setting [9]) and in assay [3] (MKN ATCC12478) was greater than 32 µg/mL throughout. Also, the MIC90 in the assay on M. avium complex (MAC) (MAC isolates) amounted to 32 µg/mL (≈ 67.6 µM).
